Measured values reported in patent US20170209417A1, “POLYCOMPLEX GEL FOR TREATING DISEASES OF INTESTINAL/DIGESTIVE TRACT” (priority 2014, published 2017).

Experiments:
[1] = test system: allergic agglutinating autoantibodies; conditions: in vivo, iv
[2] = test system: rabbits; conditions: rabbit, in vivo
Procedure: Besides, it is necessary to point out that the claimed polycomplex gel is characterized by the absence of allergenic properties. Considering the fact that nowadays, an obligatory stage of a new medicine study is the evaluation of the allergenicity thereof, the claimed polycomplex gel has passed a verification on the basis of the Arthus-Sakharov test. For this purpose, six rabbits of both sexes weighting from 2.0 to 2.5 kg were injected with thymogen under sterile conditions subcutaneously on one side of the back with the dose of 10 mg/kg in 1.0 ml of sodium chloride isotonic solution and 1 ml of hors serum subcutaneously into the back on the other side. The rabbits of the control group were injected, instead of thymogen, with 1 ml of sodium chloride isotonic solution. The injections of thymogen and of horse serum were repeated for 6 times with a 5-6 days' interval.

thymogen
Titer growth of allergic agglutinating autoantibodies [1]: not accompanied by any titer growth | Allergenicity (conclusion, standard methods) [2]: not allergenic
